The values that follow are results of earlier work, collected in US20180085319A1, “METHODS AND COMPOSITIONS FOR TREATING CANCER” (priority 2016, published 2018).

The series has as its system anti-immunotoxin immune response.

Rituximab: under “B cell depletion”, the “prevention of anti-immunotoxin immune response in patients” value is “ineffective in preventing anti-immunotoxin immune response”. Consider “cyclophosphamide and pentostatin [cyclophosphamide and pentostatin (CP/PS)]”, for which the “effect on immune response to SS1P in mesothelioma patients” value (immunosuppressive treatment given with SS1P) is given as “only delayed the response to the immunotoxin”.
